Test results from ChEMBL document CHEMBL4033763, “Synthesis and Anti-HCV Activity of a Novel 2',3'-Dideoxy-2'-α-fluoro-2'-β-C-methyl Guanosine Phosphoramidate Prodrug” (ACS Med Chem Lett, 2017).

How the values were obtained:
[1] = Cytotoxicity against human HuH7 cells expressing HIV LTR promoter driven luciferase reporter gene in presence of 10% fetal bovine serum by lucifrease reporter gene assay; assay type: cell-based, Huh-7
[2] = system: Hepatitis C virus; experiment: Antiviral activity against HCV 1b replicon infected in human HuH7 cells expressing HIV LTR promoter driven luciferase reporter gene assessed as reduction in viral RNA replication incubated for 48 hrs by lucifrease reporter gene assay; assay type: functional, cell-based, Hepacivirus hominis; details: genotype 1b, Huh-7, 48 h
[3] = system: Hepatitis C virus; experiment: Antiviral activity against HCV 1a replicon infected in human HuH7 cells expressing HIV LTR promoter driven luciferase reporter gene assessed as reduction in viral RNA replication incubated for 48 hrs by lucifrease reporter gene assay; assay type: functional, cell-based, Hepacivirus hominis; details: subtype 1a, Huh-7, 48 h
[4] = system: Hepatitis C virus; experiment: Antiviral activity against HCV 2a replicon infected in human HuH7 cells expressing HIV LTR promoter driven luciferase reporter gene assessed as reduction in viral RNA replication incubated for 48 hrs by lucifrease reporter gene assay; assay type: functional, cell-based, Hepacivirus hominis; details: genotype 2a, Huh-7, 48 h
[5] = system: Hepatitis C virus; experiment: Antiviral activity against NS5B S282T mutant expressing HCV 1b replicon infected in human HuH7 cells expressing HIV LTR promoter driven luciferase reporter gene assessed as reduction in viral RNA replication incubated for 48 hrs by lucifrease reporter gene assay; assay type: functional, cell-based, Hepacivirus hominis; details: genotype 1b, Huh-7, 48 h

| Structure (SMILES) | CC50 [1] [µM] | EC50 [2] [nM] | EC50 [3] [nM] | EC50 [4] [nM] | EC50 [5] [nM] |
| --- | --- | --- | --- | --- | --- |
| COc1nc(N)nc2c1ncn2[C@@H]1O[C@H](CO[P@@](=O)(N[C@@H](C)C(=O)OC2CCCC2)Oc2ccccc2)C[C@@]1(C)F | > 100 | 580 | 1100 | 390 | 810 |
| COc1nc(N)nc2c1ncn2[C@@H]1O[C@H](CO)C[C@@]1(C)F | > 100 | > 100000 | – | – | – |
